We go through one compound from patent US7951562B2, “Method for glycosylating hydroxylysine residues in polypeptides or peptides” (Oulun Yliopisto, priority 2000, dated 2011).

Assay type in all cases: biochemical
Assay [1] addresses T1, lysyl hydroxylase activity of His-tagged LH3 (Homo sapiens, UniProt O60568).
T1 construct: human LH1 signal peptide (N, cleaved yes); made in house; host or cells: Sf9 insect cells, baculovirus
T1 sequence (O60568 25-738): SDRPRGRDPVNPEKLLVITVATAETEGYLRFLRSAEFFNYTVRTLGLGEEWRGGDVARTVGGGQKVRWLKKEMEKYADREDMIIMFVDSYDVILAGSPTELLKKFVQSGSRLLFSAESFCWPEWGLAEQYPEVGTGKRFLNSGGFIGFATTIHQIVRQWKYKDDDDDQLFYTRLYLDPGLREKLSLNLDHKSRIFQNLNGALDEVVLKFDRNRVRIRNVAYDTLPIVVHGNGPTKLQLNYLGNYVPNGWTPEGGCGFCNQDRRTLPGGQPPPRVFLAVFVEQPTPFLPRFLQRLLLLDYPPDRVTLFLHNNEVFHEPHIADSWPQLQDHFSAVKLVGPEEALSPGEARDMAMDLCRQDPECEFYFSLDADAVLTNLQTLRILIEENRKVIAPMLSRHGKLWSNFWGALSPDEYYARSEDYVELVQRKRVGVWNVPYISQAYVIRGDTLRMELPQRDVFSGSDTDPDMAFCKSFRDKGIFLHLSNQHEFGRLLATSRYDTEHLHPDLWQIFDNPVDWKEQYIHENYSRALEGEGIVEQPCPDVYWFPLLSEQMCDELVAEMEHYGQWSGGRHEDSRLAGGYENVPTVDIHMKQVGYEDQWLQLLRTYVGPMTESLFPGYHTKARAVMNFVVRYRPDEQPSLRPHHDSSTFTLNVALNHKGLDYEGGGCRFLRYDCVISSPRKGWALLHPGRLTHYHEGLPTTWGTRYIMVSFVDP
The assay can be described thus: Inactivation of lysyl hydroxylase activity by imidazole. Here is the method: (§1) LH activity was assayed by a method based on the hydroxylation-coupled decarboxylation of 2-oxo(1-^14C)glutarate (Kivirikko and Myllylä 1982), synthetic peptide […] was used as a substrate. GGT activity was assayed as described elsewhere (Myllylä et al. 1975). The method is based on the transfer of radioactively (tritium) labelled glucose from UDP-glucose to galactosylhydroxylysyl residues in calf skin gelatin substrate and on the specific assay of the product of the enzyme reaction after alkaline hydrolysis.
(§2) LH3 was expressed in Sf9 cells as a protein with His-tag at the amino-terminus. This enabled us to use nickel column in the purification of the protein from the cell extract of insect cells, because nickel-charged agaroses are developed for the purification of recombinant proteins containing a polyhistidine (6×His) as a tag. […] No lysyl hydroxylase activity could be detected in the eluate, however. We have determined that imidazole is a potent inhibitor of lysyl hydroxylase activity. […] Imidazole in the concentration of 100 mM and 10 mM inactivated lysyl hydroxylase activity by 55% and 20%, respectively.

The target in assay [2] is T2, GGT activity of His-tagged LH3 (Homo sapiens, UniProt O60568).
T2 construct: human LH1 signal peptide (N, cleaved yes); made in house; host or cells: Sf9 insect cells, baculovirus (pFastBacI, BAC-TO-BAC)
T2 sequence (O60568 25-738): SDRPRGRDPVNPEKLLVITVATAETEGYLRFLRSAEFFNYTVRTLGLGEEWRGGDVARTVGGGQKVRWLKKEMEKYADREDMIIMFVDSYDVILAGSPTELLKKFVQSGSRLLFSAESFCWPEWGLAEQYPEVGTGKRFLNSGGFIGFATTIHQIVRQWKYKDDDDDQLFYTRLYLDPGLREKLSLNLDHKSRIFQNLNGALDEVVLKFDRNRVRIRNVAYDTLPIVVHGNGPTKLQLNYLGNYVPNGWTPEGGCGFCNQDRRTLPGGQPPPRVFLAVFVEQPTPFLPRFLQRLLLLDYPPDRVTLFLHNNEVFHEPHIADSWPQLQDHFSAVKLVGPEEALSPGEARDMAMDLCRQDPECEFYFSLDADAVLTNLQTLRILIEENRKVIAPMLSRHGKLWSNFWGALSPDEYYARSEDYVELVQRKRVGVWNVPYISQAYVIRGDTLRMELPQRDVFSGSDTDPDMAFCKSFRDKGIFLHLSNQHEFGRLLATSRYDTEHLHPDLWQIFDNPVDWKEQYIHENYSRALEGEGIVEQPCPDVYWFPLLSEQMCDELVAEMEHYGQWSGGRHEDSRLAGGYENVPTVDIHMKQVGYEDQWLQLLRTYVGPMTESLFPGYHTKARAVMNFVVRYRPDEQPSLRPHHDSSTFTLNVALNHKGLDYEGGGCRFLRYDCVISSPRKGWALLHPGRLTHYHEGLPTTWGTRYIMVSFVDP
The assay can be described thus: Effect of imidazole on GGT activity of His-tagged LH3 from Sf9 cells. On the procedure: as §1, §2

The target of assay [3] is T3, GT activity of the protein produced in E. coli cells with human LH3 cDNA (Homo sapiens, UniProt O60568).
T3 construct: made in house; host or cells: E. coli XL1-Blue (pQE30)
T3 sequence (O60568 25-738): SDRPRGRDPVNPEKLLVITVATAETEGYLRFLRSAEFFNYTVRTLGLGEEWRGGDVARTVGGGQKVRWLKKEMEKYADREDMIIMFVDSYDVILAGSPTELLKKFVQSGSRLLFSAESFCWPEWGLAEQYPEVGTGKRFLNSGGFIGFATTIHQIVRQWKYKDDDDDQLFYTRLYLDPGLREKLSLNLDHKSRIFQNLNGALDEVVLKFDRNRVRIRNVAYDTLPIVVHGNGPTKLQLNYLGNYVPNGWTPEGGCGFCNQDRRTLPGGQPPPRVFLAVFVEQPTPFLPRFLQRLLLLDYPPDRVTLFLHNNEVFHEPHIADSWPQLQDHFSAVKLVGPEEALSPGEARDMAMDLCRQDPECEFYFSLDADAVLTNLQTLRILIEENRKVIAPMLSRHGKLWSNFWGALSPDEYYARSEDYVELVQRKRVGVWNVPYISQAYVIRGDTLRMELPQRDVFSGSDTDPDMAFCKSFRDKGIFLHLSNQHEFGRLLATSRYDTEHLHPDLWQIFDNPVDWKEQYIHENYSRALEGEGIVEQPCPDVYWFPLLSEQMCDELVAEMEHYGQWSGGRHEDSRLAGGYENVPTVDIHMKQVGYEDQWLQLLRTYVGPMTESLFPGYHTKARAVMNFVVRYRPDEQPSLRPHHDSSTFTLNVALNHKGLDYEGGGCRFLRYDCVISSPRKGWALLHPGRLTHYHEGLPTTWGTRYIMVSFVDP
Briefly: Effect of imidazole on GT activity of protein produced in E. coli with human LH3 cDNA. On the procedure: (§3) PFastBacI constructs for human LH1, LH2a, LH2b and LH3 were cleaved with BamHI and Hind III restriction enzymes and coding regions were subcloned into same site in E. coli expression vector pQE30 containing (His)6 tag at the amino terminus. Insert for C. elegans LH (corresponding to amino acids 14-730 in cDNA) was generated by PCR and ligated into SacI-PstI site of pOE30 vector. Constructs were transformed into E. coli XL1-Blue strain. Cultures were grown to OD600 of 0.6 at 37° C. Protein expression was induced by adding 1 mM IPTG and incubation was proceed at 30° C. for 5 hours. Cells were harvested and stored at −20° C. For activity measurements cell pellet was suspended to lysis buffer (0.4 M NaCl, 0.5% Nonident and 20 mM Tris-HCl pH 7.8, at 20° C.) and incubated in the presence of lysozyme (50 μg/ml), DNAase (10 μg/ml) and RNAase (10 μg g/ml) at room temperature for 30 minutes. Lysis was completed by sonication. Cell debris was pelleted and supernatant was used in the measurements.
(§4) GT and GGT activities were measured by a method based on the transfer of radioactively (tritium)-labeled sugar from UDP-sugar to hydroxylysyl or galactosylhydroxylysyl residues in a calf skin gelatin substrate, respectively (Myllylä et al. 1975). The specific detection of the reaction products was performed after alkaline hydrolysis.

The target of assay [4] is T4, GGT activity of the protein produced in E. coli cells with human LH3 cDNA (Homo sapiens, UniProt O60568).
T4 construct: made in house; host or cells: E. coli XL1-Blue (pQE30)
T4 sequence (O60568 25-738): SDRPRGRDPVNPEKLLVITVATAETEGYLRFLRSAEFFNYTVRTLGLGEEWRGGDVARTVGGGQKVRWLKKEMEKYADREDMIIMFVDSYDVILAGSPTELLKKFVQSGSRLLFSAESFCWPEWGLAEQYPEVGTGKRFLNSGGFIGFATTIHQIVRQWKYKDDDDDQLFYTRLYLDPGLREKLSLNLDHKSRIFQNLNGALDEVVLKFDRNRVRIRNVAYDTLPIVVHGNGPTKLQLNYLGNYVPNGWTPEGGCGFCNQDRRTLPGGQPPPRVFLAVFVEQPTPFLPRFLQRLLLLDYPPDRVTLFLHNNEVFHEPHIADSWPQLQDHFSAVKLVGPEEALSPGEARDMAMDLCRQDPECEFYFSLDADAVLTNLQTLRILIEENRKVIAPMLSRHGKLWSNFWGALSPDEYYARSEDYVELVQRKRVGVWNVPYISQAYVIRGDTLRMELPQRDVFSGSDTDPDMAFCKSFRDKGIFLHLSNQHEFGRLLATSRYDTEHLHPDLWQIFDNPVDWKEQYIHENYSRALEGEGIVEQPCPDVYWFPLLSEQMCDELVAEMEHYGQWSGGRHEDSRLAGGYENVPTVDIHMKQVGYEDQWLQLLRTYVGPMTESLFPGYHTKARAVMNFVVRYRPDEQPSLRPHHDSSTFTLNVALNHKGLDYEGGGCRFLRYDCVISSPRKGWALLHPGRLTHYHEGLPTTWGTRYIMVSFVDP
Briefly: Effect of imidazole on GGT activity of protein produced in E. coli with human LH3 cDNA. Here is the method: as §3, §4

Structures are written as SMILES.

As a reminder, the inhibition is how much of the control response was suppressed. A high value points to a strong effect. For the compound `c1c[nH]cn1` [imidazole], the “inactivation of lysyl hydroxylase activity” value in assay [1] (10 mM imidazole) is recorded as 20%; in assay [1] (100 mM imidazole) it was 55%; in assay [1] (300 mM imidazole, 2 h on ice), “almost complete inactivation”. Further, the “effect on GGT activity” value in assay [2] (10 mM to 100 mM imidazole) is “no effect”. The inhibition at 300000 µM in assay [2] (300 mM imidazole) was 25%; in assay [3] (300 mM imidazole), 60%; in assay [4] (300 mM imidazole), approximately 30%. Also, the values for the GT activity in assay [3] (10 mM imidazole (no inhibitor: 760.000)), in assay [3] (100 mM imidazole (no inhibitor: 760.000)) and in assay [3] (300 mM imidazole (no inhibitor: 760.000)) were 795.000 dpm/mg, 605.000 dpm/mg and 310.000 dpm/mg, respectively. For the same compound, the GGT activity in assay [4] (10 mM imidazole (no inhibitor: 667.000)) was 583.000 dpm/mg; in assay [4] (100 mM imidazole (no inhibitor: 667.000)) it was 599.000 dpm/mg; in assay [4] (300 mM imidazole (no inhibitor: 667.000)), 459.000 dpm/mg.
